According to patent publication US11040028B2, “Penicinotam derivative, preparation method and use thereof” (OCEAN UNIVERSITY OF CHINA, priority 2017, dated 2021):

Experiments:
Assay type in all cases: cell-based
[1] = system: human embryonic lung fibroblast IMR-90; experiment: Anti-fibrosis activity test: inhibition of proliferation of human embryonic lung fibroblast IMR-90 (CCK-8)
How it was run: (§1)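 Cells were seeded at 2×10^4 cells/mL and allowed to adhere for 24 h at 37° C, 5% CO2, then exposed to graded compound concentrations in triplicate for 48 h. CCK-8 was added for 2 h, A450 was read, and IC50 was derived from inhibition rate = (1−Ai/Ao)×100%.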

[2] = system: cardiac fibroblast RAT-iCell-C002; experiment: Anti-fibrosis activity test: inhibition of proliferation of cardiac fibroblast RAT-iCell-C002 (CCK-8); settings: Cardiac fibroblast, 48 h
How it was run: as §1

[3] = system: human hepatic stellate cells LX-2; experiment: Anti-fibrosis activity test: inhibition of proliferation of human hepatic stellate cells LX-2 (CCK-8); settings: Homo sapiens, 48 h
How it was run: as §1

NF-κB = experiment: Immunological activity test: inhibition of NF-κB activity; settings: initial concentration of 30 μM; a/b isomers given as first/second symbol; read-out: IC50 (μM), inhibitory activity against NF-κB
How it was run: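 Compounds were first screened for inhibition of NF-κB activity at 30 μM, with parthenolide as the positive control. IC50 values were then determined for the compounds by further analysis of the assay data.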

[4] = system: human lung fibroblasts HFL1; experiment: Anti-fibrosis activity test: inhibition of proliferation of human lung fibroblasts HFL1 (CCK-8); settings: Homo sapiens, HFL1, 48 h
How it was run: as §1

[5] = system: human dermal fibroblasts CCC-ESF-1; experiment: Anti-fibrosis activity test: inhibition of proliferation of human dermal fibroblasts CCC-ESF-1 (CCK-8); settings: Fibroblast
How it was run: as §1

[6] = system: human fibrosarcoma cells HT-1080; experiment: Anti-fibrosis activity test: inhibition of proliferation of human fibrosarcoma cells HT-1080 (CCK-8); settings: Homo sapiens, HT-1080, 48 h
How it was run: as §1

[7] = system: mouse macrophages (RAW264.7); experiment: Lipopolysaccharide-induced NO secretion in macrophages (Griess); settings: Mus musculus, RAW264.7, 24 h, RAW264.7, LPS 1 μg/ml, a/b isomers given as first/second symbol, read-out: IC50 (μM), inhibition of lipopolysaccharide-induced NO secretion in macrophages
How it was run: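 RAW264.7 cells in DMEM with 10% FBS were treated with test compounds at several concentrations, then stimulated with LPS (1 μg/ml) for 24 hours. Nitrite in the supernatant was measured by Griess reaction at 548 nm, and percent inhibition was calculated against blank-medium controls.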

BHK-21 cells = experiment: Anti-fibrosis activity test: inhibition of BHK-21 cell proliferation (CCK-8); settings: Mesocricetus auratus, BHK-21, 48 h
How it was run: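 Cells seeded at 2×10^4 cells/mL, allowed to adhere 24 hours, then exposed to graded compound concentrations in triplicate for 48 hours at 37° C, 5% CO2. CCK-8 added for 2 hours, absorbance read at 450 nm; inhibition versus blank control used to derive IC50. Pirfenidone served as positive control.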

[8] = Homo sapiens, IMR-90 cells, 48 h, CCK-8
[9] = Homo sapiens, CCC-ESF-1 cells, 48 h, CCK-8
[10] = human embryonic lung fibroblast IMR-90, CCK-8, 48 hours
[11] = cardiac fibroblast RAT-iCell-C002, CCK-8, 48 hours
[12] = human hepatic stellate cells LX-2, CCK-8, 48 hours
[13] = human lung fibroblasts HFL1, CCK-8, 48 hours
[14] = human dermal fibroblasts CCC-ESF-1, CCK-8, 48 hours
[15] = human fibrosarcoma cells HT-1080, CCK-8, 48 hours
[16] = CCK-8, 48 hours after administration

| SMILES | IC50 [1, 8] [mM] | IC50 ([2]; RAT-iCell-C002 cells, CCK-8) [mM] | IC50 ([3]; LX-2, 48 h, LX-2 cells, CCK-8) [mM] | IC50 (NF-κB) [µM] | IC50 ([4]; HFL1 cells, 48 h, CCK-8) [mM] | IC50 [5, 9] [mM] | IC50 ([6]; HT-1080 cells, 48 h, CCK-8) [mM] | IC50 [7] [µM] | IC50 (BHK-21 cells; 48 h, CCK-8) [mM] | IC50 [1, 10] [mM] | IC50 [2, 11] [mM] | IC50 [3, 12] [mM] | IC50 [4, 13] [mM] | IC50 [5, 14] [mM] | IC50 [6, 15] [mM] | IC50 (BHK-21 cells; [16]) [mM] |
| --- | --- | --- | --- | --- | --- | --- | --- | --- | --- | --- | --- | --- | --- | --- | --- | --- |
| O=C1c2c(n(CCCCN3CCCCC3)c3ccccc3c2=O)-c2cccn21 [Compound 667a, 4-(4-(Piperidin-1-yl)butyl)-9H-pyrrolizino[1,2-b]quinoline-9,10(4H)-dione] | 0.05 to 5 | 0.05 to 5 | 0.05 to 5 | 1 to 10 | 0.05 to 5 | 0.05 to 5 | 0.05 to 5 | 1 to 10 | 0.05 to 5 |  |  |  |  |  |  |  |
| CCOC(=O)COc1c2c(nc3ccccc13)-c1cccn1C2=O [Compound 654b, ethyl 2-((10-oxo-10H-pyrrolizino[1,2-b]quinolin-9-yl)oxy)acetate] |  |  |  | 1 to 10 |  |  |  | 1 to 10 |  | 0.05 to 5 | 0.05 to 5 | 0.05 to 5 | 0.05 to 5 | < 0.05 | 0.05 to 5 | 0.05 to 5 |
| COc1cc(Cn2c3c(c(=O)c4ccccc42)C(=O)n2cccc2-3)cc(OC)c1 [Compound 580a, 4-(3,5-Dimethoxybenzyl)-9H-pyrrolizino[1,2-b]quinoline-9,10(4H)-dione] |  |  |  | 1 to 10 |  |  |  | 0.1 to 1 |  | 0.05 to 5 | 0.05 to 5 | 0.05 to 5 | 0.05 to 5 | 0.05 to 5 | 0.05 to 5 | 0.05 to 5 |
| O=C1c2c(nc3ccccc3c2OCCN2CCOCC2)-c2cccn21 [Compound 662b, 9-(2-morpholinoethoxy)-10H-pyrrolizino[1,2-b]quinolin-10-one] |  |  |  | 1 to 10 |  |  |  | 1 to 10 |  | 0.05 to 5 | 0.05 to 5 | 0.05 to 5 | 0.05 to 5 | 0.05 to 5 | 0.05 to 5 | 0.05 to 5 |
| Cc1ccccc1Cn1c2c(c(=O)c3ccccc31)C(=O)n1cccc1-2 [Compound 574a, 4-(2-Methylbenzyl)-9H-pyrrolizino[1,2-b]quinoline-9,10(4H)-dione] |  |  |  | 1 to 10 |  |  |  | 1 to 10 |  | 0.05 to 5 | 0.05 to 5 | 0.05 to 5 | 0.05 to 5 | 0.05 to 5 | 0.05 to 5 | 0.05 to 5 |
| N#Cc1ccc2c(O)c3c(nc2c1)-c1cccn1C3=O [Compound 512b, 9-hydroxy-10-oxo-10H-pyrrolizino[1,2-b]quinoline-6-carbonitrile] |  |  |  | 10 to 50 |  |  |  | 1 to 10 |  | 0.05 to 5 | 0.05 to 5 | < 0.05 | 0.05 to 5 | 0.05 to 5 | 0.05 to 5 | 0.05 to 5 |
| O=C1c2c(nc3ccccc3c2OCc2ccc(F)cc2F)-c2cccn21 [Compound 578b, 9-((2,4-difluorobenzyl)oxy)-10H-pyrrolizino[1,2-b]quinolin-10-one] |  |  |  | 1 to 10 |  |  |  | 1 to 10 |  | 0.05 to 5 | 0.05 to 5 | 0.05 to 5 | 0.05 to 5 | 0.05 to 5 | 0.05 to 5 | 0.05 to 5 |
| O=C1c2c(n(Cc3cccc(Cl)c3)c3cccc(Cl)c3c2=O)-c2cccn21 [Compound 478a, 8-Chloro-4-(3-chlorobenzyl)-9H-pyrrolizino[1,2-b]quinoline-9,10(4H)-dione] |  |  |  | 10 to 50 |  |  |  | 0.1 to 1 |  | 0.05 to 5 | 0.05 to 5 | 0.05 to 5 | 0.05 to 5 | 0.05 to 5 | 0.05 to 5 | 0.05 to 5 |
| O=C1c2c(nc3ccc(C(F)(F)F)cc3c2O)-c2cccn21 [Compound 282b, 9-hydroxy-7-(trifluoromethyl)-10H-pyrrolizino[1,2-b]quinolin-10-one] |  |  |  | 1 to 10 |  |  |  | 10 to 50 |  | 0.05 to 5 | 0.05 to 5 | 0.05 to 5 | 0.05 to 5 | 0.05 to 5 | 0.05 to 5 | 0.05 to 5 |
| O=C1c2c(n(Cc3ccccc3I)c3ccccc3c2=O)-c2cccn21 [Compound 576a, 4-(2-Iodobenzyl)-9H-pyrrolizino[1,2-b]quinoline-9,10(4H)-dione] |  |  |  | 1 to 10 |  |  |  | 1 to 10 |  | 0.05 to 5 | 0.05 to 5 | 0.05 to 5 | 0.05 to 5 | 0.05 to 5 | 0.05 to 5 | 0.05 to 5 |
| O=C1c2c(nc3ccccc3c2OCc2c(Cl)cccc2Cl)-c2cccn21 [Compound 614b, 9-((2,6-dichlorobenzyl)oxy)-10H-pyrrolizino[1,2-b]quinolin-10-one] |  |  |  | 1 to 10 |  |  |  | 10 to 50 |  | 0.05 to 5 | 0.05 to 5 | 0.05 to 5 | 0.05 to 5 | 0.05 to 5 | 0.05 to 5 | 0.05 to 5 |
| O=C1c2c(nc3cc(F)ccc3c2O)-c2cccn21 [Compound 488b, 6-fluoro-9-hydroxy-10H-pyrrolizino[1,2-b]quinolin-10-one] |  |  |  | 10 to 50 |  |  |  | 1 to 10 |  | 0.05 to 5 | 0.05 to 5 | 0.05 to 5 | 0.05 to 5 | 0.05 to 5 | 0.05 to 5 | 0.05 to 5 |
| O=C1c2c(n(CCCCN3CCOCC3)c3ccccc3c2=O)-c2cccn21 [Compound 664a, 4-(4-Morpholinobutyl)-9H-pyrrolizino[1,2-b]quinoline-9,10(4H)-dione] |  |  |  | 1 to 10 |  |  |  | 0.1 to 1 |  | 0.05 to 5 | 0.05 to 5 | 0.05 to 5 | 0.05 to 5 | 0.05 to 5 | 0.05 to 5 | 0.05 to 5 |
| O=C1c2c([nH]c3c(C(F)(F)F)cccc3c2=O)-c2cccn21 [Compound 448a, 5-(Trifluoromethyl)-9H-pyrrolizino[1,2-b]quinoline-9,10(4H)-dione] |  |  |  | 1 to 10 |  |  |  | 0.1 to 1 |  | 0.05 to 5 | 0.05 to 5 | 0.05 to 5 | 0.05 to 5 | 0.05 to 5 | 0.05 to 5 | 0.05 to 5 |
| O=C1c2c(n(CC(F)(F)F)c3ccccc3c2=O)-c2cccn21 [Compound 657a, 4-(2,2,2-Trifluoroethyl)-9H-pyrrolizino[1,2-b]quinoline-9,10(4H)-dione] |  |  |  | 0.1 to 1 |  |  |  | 1 to 10 |  | 0.05 to 5 | 0.05 to 5 | 0.05 to 5 | 0.05 to 5 | 0.05 to 5 | 0.05 to 5 | 0.05 to 5 |
| O=C1c2c(nc3ccccc3c2OCc2cc(F)c(F)cc2F)-c2cccn21 [Compound 585b, 9-((2,4,5-trifluorobenzyl)oxy)-10H-pyrrolizino[1,2-b]quinolin-10-one] |  |  |  | 1 to 10 |  |  |  | 1 to 10 |  | 0.05 to 5 | 0.05 to 5 | 0.05 to 5 | 0.05 to 5 | 0.05 to 5 | 0.05 to 5 | 0.05 to 5 |
| COc1cccc2c(O)c3c(nc12)-c1cccn1C3=O [Compound 446b, 9-hydroxy-5-methoxy-10H-pyrrolizino[1,2-b]quinolin-10-one] |  |  |  | 0.001 to 0.1 |  |  |  | 1 to 10 |  | 0.05 to 5 | 0.05 to 5 | 0.05 to 5 | 0.05 to 5 | 0.05 to 5 | 0.05 to 5 | 0.05 to 5 |
| O=C1c2c(nc3cccc(F)c3c2OCc2ccc(F)cc2)-c2cccn21 [Compound 468b, 8-fluoro-9-((4-fluorobenzyl)oxy)-10H-pyrrolizino[1,2-b]quinolin-10-one] |  |  |  | 1 to 10 |  |  |  | 1 to 10 |  | 0.05 to 5 | 0.05 to 5 | 0.05 to 5 | 0.05 to 5 | 0.05 to 5 | 0.05 to 5 | 0.05 to 5 |
| CCOCCCOc1c2c(nc3ccccc13)-c1cccn1C2=O [Compound 672b, 9-(3-ethoxypropoxy)-10H-pyrrolizino[1,2-b]quinolin-10-one] | 0.05 to 5 | 0.05 to 5 | 0.05 to 5 | 1 to 10 | 0.05 to 5 | 0.05 to 5 | 0.05 to 5 | 1 to 10 | 0.05 to 5 |  |  |  |  |  |  |  |
